Reference: patent US4481201A, “Pharmaceutical composition containing N,N^3 -di-(β-bromopropionyl)-N^1,N^2 -dispirotripiperazinium dichloride” (Vsesojuzny Nauchno-Issledovatelsky Khimoko-Farmasevtichesky …, priority 1981, dated 1984)

Tests used:
[1] = Growth of graft sarcoma M-1 in rats; assay type: in vivo; settings: rat, in vivo, ip, rats with sarcoma M-1, repeated intraperitoneal administration; read-out: Maximum tolerable dose (MTD)
From the text: (§1) The antitumor activity has been studied on white rats weighing 110-130 g, as well as on white noninbred and inbred mice weighing 17-21 g with ligated tumors. The treatment is started 5-7 days transplanting of solid tumors and the following day after the transplanting of leukotic strains. Use has been made of the following transplantable strains of the tumors:
(§2) (1) rats: Ienssen's sarcoma, sarcoma 45, sarcoma M-1, sarcoma 536;
(§3) The compounds of the general formula (I), wherein X represents Cl^- (compound 1), Br^- (compound 2) are well-soluble in an isotonic solution of sodium chloride and they are administered intraperitoneally. The doses of the compounds have been calculated in mg per kg of the animal bodyweight.

sarcoma M-1 = assay: Growth of graft sarcoma M-1 in rats; assay type: in vivo; settings: rats, 5 injections
From the text: as §1, §2, §3

leukemia L1210 = assay: Life span of mice with transplantable leukemia L1210; assay type: in vivo, inbred mice
From the text: as §1
(3) inbred mice: leukemia La, leukemia L1210 and P-388.
The activity of compounds relative to leukosis has been assessed by the life span (It) of treated animals as compared to the control ones. It --index of suppression of leukosis development is calculated by the formula: [formula]

carcinoma HK = assay: Growth of graft carcinoma HK in mice; assay type: in vivo, noninbred white mice; settings: mice, 6 injections
From the text: as §1
(§4) (2) noninbred white mice: sarcoma 180, sarcoma AK, sarcoma 37, carcinoma HK;
as §3

[2] = Growth of graft carcinoma HK in mice; assay type: in vivo, noninbred white mice; settings: mouse, in vivo, ip; mice with carcinoma HK, repeated intraperitoneal administration; read-out: Maximum tolerable dose (MTD)
From the text: as §1, §4, §3

sarcoma 37 = assay: Growth of graft sarcoma 37 in mice; assay type: in vivo, noninbred white mice; settings: mice
From the text: as §1, §4, §3

[3] = Growth of graft sarcoma 37 in mice; assay type: in vivo, noninbred white mice; settings: mouse, in vivo, ip; mice with sarcoma 37, repeated intraperitoneal administration; read-out: Maximum tolerable dose (MTD)
From the text: as §1, §4, §3

[4] = Distribution of C^14-labeled preparation within organs and tissues of rats with sarcoma M-1; assay type: in vivo; settings: rats with sarcoma M-1, intravenous
From the text: Furthermore, the particular distribution of the preparation according to the present invention within organs and tissues should also be noted.
(§5) In the case of administration of the preparation according to the present invention labeled with C^14, a higher level of radioactivity in blood is observed than in the case of prospidin labeled with C^14. A higher rate of accumulation of the preparation according to the present invention as compared to prospidin is observed in larynx, windpipe, bronchi, bone marrow, tumor and thyroid gland. The preparation according to the present invention labeled with C^14 is withdrawn from the organism within 24 hours after the intravenous administration mainly with urine, while C^14 --labeled prospidin is retained in the organism for a longer period.

[5] = Growth of graft sarcoma 536 in rats; assay type: in vivo; settings: rat, in vivo, ip, rats with sarcoma 536, repeated intraperitoneal administration; read-out: Maximum tolerable dose (MTD)
From the text: as §1, §2, §3

sarcoma 536 = assay: Growth of graft sarcoma 536 in rats; assay type: in vivo; settings: rats
From the text: as §1, §2, §3

[6] = Withdrawal of radioactivity from the rats' organism; assay type: in vivo; set-up: concentration or dose not given beside the values; settings: C^14-labeled
From the text: as §5

[7] = mice with transplantable leukemia L1210
[8] = 250 mg/kg intraperitoneally (MTD)
[9] = 75 mg/kg intraperitoneally, 7 injections
[10] = 50 mg/kg intraperitoneally, 7 injections
[11] = 70 mg/kg intraperitoneally, 6 injections
[12] = 24 hours after intravenous administration

O=C(CCBr)N1CC[N+]2(CC1)CC[N+]1(CCN(C(=O)CCBr)CC1)CC2 [Compound 1, N,N^3 -di-(β-bromopropionyl)-N^1,N^2 -dispirotripiperazinium dichloride]
MTD [1]: 111 mg/kg
Change in the animal body weight, test (sarcoma M-1; 90 mg/kg intraperitoneally): +7 g
It, % tumor growth suppression index (sarcoma M-1; 90 mg/kg intraperitoneally): +96%
Change in the animal body weight, test (sarcoma M-1; 111 mg/kg intraperitoneally (MTD)): +4 g
extension of life span as compared to the control, factor (leukemia L1210; leukemia L1210): 1.03
It, % index of suppression of leukosis development (leukemia L1210; [7]): 38%
Life span (leukemia L1210; [7]): 10.6 ± 2 days
Change in the animal body weight, test (carcinoma HK; 125 mg/kg intraperitoneally): -3 g
It, % tumor growth suppression index (carcinoma HK; 125 mg/kg intraperitoneally): +42%
Change in the animal body weight, test (carcinoma HK; [8]): -4 g
It, % tumor growth suppression index (carcinoma HK; [8]): +86%
MTD [2]: 250 mg/kg
Change in the animal body weight, test (sarcoma 37; [9]): -2 g
It, % tumor growth suppression index (sarcoma 37; [9]): +74%
It, % tumor growth suppression index (sarcoma 37; 150 mg/kg intraperitoneally, 5 injections): +53%
Change in the animal body weight, test (sarcoma 37; 277 mg/kg intraperitoneally (MTD), 6 injections): -4 g
MTD [3]: 277 mg/kg
Coefficient of differential accumulation, Blood ([4]; 15 min): 1.43
Coefficient of differential accumulation, Bone marrow ([4]; 15 min): 3.84
Coefficient of differential accumulation, Bronchi ([4]; 15 min): 3.4
Coefficient of differential accumulation, Hypophysis ([4]; 15 min): 6.3
Coefficient of differential accumulation, Kidneys ([4]; 15 min): 10.4
Coefficient of differential accumulation, Larynx ([4]; 15 min): 4.15
Coefficient of differential accumulation, Liver ([4]; 15 min): 0.94
Coefficient of differential accumulation, Lungs ([4]; 15 min): 0.95
Coefficient of differential accumulation, Lymphonodes ([4]; 15 min): 0.69
Coefficient of differential accumulation, Spleen ([4]; 15 min): 0.66
Coefficient of differential accumulation, Thymus gland ([4]; 15 min): 1.67
Coefficient of differential accumulation, Tumor ([4]; 15 min): 1.76
Coefficient of differential accumulation, Tyroid gland ([4]; 15 min): 3.5
Coefficient of differential accumulation, Windpipe ([4]; 15 min): 7.29
Coefficient of differential accumulation, Blood ([4]; 30 min): 0.91
Coefficient of differential accumulation, Bone marrow ([4]; 30 min): 6.67
Coefficient of differential accumulation, Bronchi ([4]; 30 min): 2.83
Coefficient of differential accumulation, Hypophysis ([4]; 30 min): 6.67
Coefficient of differential accumulation, Kidneys ([4]; 30 min): 5.4
Coefficient of differential accumulation, Larynx ([4]; 30 min): 3.43
Coefficient of differential accumulation, Liver ([4]; 30 min): 0.69
Coefficient of differential accumulation, Lungs ([4]; 30 min): 0.71
Coefficient of differential accumulation, Lymphonodes ([4]; 30 min): 0.11
Coefficient of differential accumulation, Spleen ([4]; 30 min): 0.33
Coefficient of differential accumulation, Thymus gland ([4]; 30 min): 0.71
Coefficient of differential accumulation, Tumor ([4]; 30 min): 0.91
Coefficient of differential accumulation, Tyroid gland ([4]; 30 min): 2.73
Coefficient of differential accumulation, Windpipe ([4]; 30 min): 4.62
Coefficient of differential accumulation, Blood ([4]; 60 min): 0.47
Coefficient of differential accumulation, Bone marrow ([4]; 60 min): 3.78
Coefficient of differential accumulation, Bronchi ([4]; 60 min): 1.7
Coefficient of differential accumulation, Hypophysis ([4]; 60 min): 5.13
Coefficient of differential accumulation, Kidneys ([4]; 60 min): 2.6
Coefficient of differential accumulation, Larynx ([4]; 60 min): 2.0
Coefficient of differential accumulation, Liver ([4]; 60 min): 0.76
Coefficient of differential accumulation, Lungs ([4]; 60 min): 0.86
Coefficient of differential accumulation, Lymphonodes ([4]; 60 min): 0.69
Coefficient of differential accumulation, Spleen ([4]; 60 min): 0.32
Coefficient of differential accumulation, Thymus gland ([4]; 60 min): 0.54
Coefficient of differential accumulation, Tumor ([4]; 60 min): 0.57
Coefficient of differential accumulation, Tyroid gland ([4]; 60 min): 1.43
Coefficient of differential accumulation, Windpipe ([4]; 60 min): 4.64
Coefficient of differential accumulation, Blood ([4]; 24 hours): 0.05
Coefficient of differential accumulation, Bone marrow ([4]; 24 hours): 0.76
Coefficient of differential accumulation, Bronchi ([4]; 24 hours): 0.24
Coefficient of differential accumulation, Hypophysis ([4]; 24 hours): 4.12
Coefficient of differential accumulation, Kidneys ([4]; 24 hours): 0.53
Coefficient of differential accumulation, Larynx ([4]; 24 hours): 0.58
Coefficient of differential accumulation, Liver ([4]; 24 hours): 0.32
Coefficient of differential accumulation, Lungs ([4]; 24 hours): 0.26
Coefficient of differential accumulation, Lymphonodes ([4]; 24 hours): 0.2
Coefficient of differential accumulation, Spleen ([4]; 24 hours): 0.11
Coefficient of differential accumulation, Thymus gland ([4]; 24 hours): 0.2
Coefficient of differential accumulation, Tumor ([4]; 24 hours): 0.26
Coefficient of differential accumulation, Tyroid gland ([4]; 24 hours): 0.48
Coefficient of differential accumulation, Windpipe ([4]; 24 hours): 0.6
MTD [5]: 140 mg/kg
tumor growth suppression class, Sarcoma 536 (sarcoma 536): ++ (tumor growth suppression by 80-95%)
Change in the animal body weight, test (sarcoma 536; [10]): -15 g
It, % tumor growth suppression index (sarcoma 536; [10]): +45%
Change in the animal body weight, test (sarcoma 536; [11]): -22 g
It, % tumor growth suppression index (sarcoma 536; [11]): +55%
Change in the animal body weight, test (sarcoma 536; 140 mg/kg intraperitoneally (MTD), 6 injections): -32 g
It, % tumor growth suppression index (sarcoma 536; 140 mg/kg intraperitoneally (MTD), 6 injections, listed as preparation of the invention, 140 mg/kg): 78%
Withdrawal of radioactivity, Feces [6, 12]: 1.6%
Withdrawal of radioactivity, Total [6, 12]: 99.9%
Withdrawal of radioactivity, Urina [6, 12]: 98.3%
Withdrawal of radioactivity, Urina ([6]; within 3 hours after intravenous administration): 80.7%
